Source: the supplement of paper PMC11208160

Assay: recombinant UMI read abundance after kanamycin selection (control-corrected) (log10(CPM+1)); higher = more efficient recombination; extreme values may be limits of the assay; sequences stand for … in AGTGCAGAGAAAATCGGCCAGTTTTCTCTGCCTGCAGTCCGCATGCCGTGGGACCCCTTGGGTTCTAACCTGTTGCCTAGATTTATGCAGCGGACTGCCTTTCTCCCAAAGTGATAAACCGG…AGGTTGGTTTCACT; site = the 11-nt donor
Outline: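 Each donor and donor-binding-loop pair was tracked by a 12-nt UMI on a plasmid carrying a promoterless kanamycin gene. With a second plasmid supplying a fixed target and T7-inducible IS621 bridge recombinase, the pool was plated in Escherichia coli on IPTG (0.07 mM) plus kanamycin or unselected. Sequencing of recombinant UMIs across the donor–target junction gave counts expressed as log10(CPM+1) after replicate averaging and control-derived scaling.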
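Also: IS621 bridge recombinase in Escherichia coli cells against a fixed T5 target plasmid.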

Sequence	recombinant UMI read abundance (log10)
CCCTTCTCATGGACCGGTTTTCCCGGTAATCCGTATTTGGT (site CCCTTCTCTTC)	0.121
CCCTTGGCATGGACCGGTTTTCCCGGTAATCCGTATTTGGA (site CACTTGGCTTC)	0.0394
CCCTTGGCATGGACCGGTTTTCCCGGTAATCCGTATTTGGA (site CCCTTGGCTTC)	0.107
CCCTTGGCATGGACCGGTTTTCCCGGTAATCCGTATTTGGA (site CGCTTGGCTTC)	0.0127
CCCTTGGCATGGACCGGTTTTCCCGGTAATCCGTATTTGGA (site CTCTTGGCTTC)	0.00833
CCGAAAACATGGACCGGTTTTCCCGGTAATCCGTATTTGCT (site ACGAAAACTAG)	0
CCGAAAACATGGACCGGTTTTCCCGGTAATCCGTATTTGCT (site CCGAAAACTAG)	0.973
CCGAAAACATGGACCGGTTTTCCCGGTAATCCGTATTTGCT (site GCGAAAACTAG)	0
CCGAAAACATGGACCGGTTTTCCCGGTAATCCGTATTTGCT (site TCGAAAACTAG)	0
CCGAAACCATGGACCGGTTTTCCCGGTAATCCGTATTTGCG (site CCGAAACCTCG)	0
CCGAATCCATGGACCGGTTTTCCCGGTAATCCGTATTTGTT (site CAGAATCCTAA)	0
CCGAATCCATGGACCGGTTTTCCCGGTAATCCGTATTTGTT (site CCGAATCCTAA)	0.251
CCGAATCCATGGACCGGTTTTCCCGGTAATCCGTATTTGTT (site CGGAATCCTAA)	0
CCGAATCCATGGACCGGTTTTCCCGGTAATCCGTATTTGTT (site CTGAATCCTAA)	0.00536
CCGACCGCATGGACCGGTTTTCCCGGTAATCCGTATTTGTA (site CCGACCGCTTA)	0.904
CCGAGTCCATGGACCGGTTTTCCCGGTAATCCGTATTTGAA (site CCGAGTCCTTT)	0.417
CCGATTACATGGACCGGTTTTCCCGGTAATCCGTATTTGCT (site CCGATTACTAG)	0.743
CCGATTACATGGACCGGTTTTCCCGGTAATCCGTATTTGCT (site CCGCTTACTAG)	0
CCGATTACATGGACCGGTTTTCCCGGTAATCCGTATTTGCT (site CCGGTTACTAG)	0

Sequence	recombinant UMI read abundance (log10)
CCGATTACATGGACCGGTTTTCCCGGTAATCCGTATTTGCT (site CCGTTTACTAG)	0
CCGCCACCATGGACCGGTTTTCCCGGTAATCCGTATTTGAT (site CCGCCACCTAT)	0.00762
CCGCCGACATGGACCGGTTTTCCCGGTAATCCGTATTTGTT (site CCGCCGACTAA)	0.275
CCGCTACCATGGACCGGTTTTCCCGGTAATCCGTATTTGCT (site CAGCTACCTAG)	0
CCGCTACCATGGACCGGTTTTCCCGGTAATCCGTATTTGCT (site CCGCTACCTAG)	0
CCGCTACCATGGACCGGTTTTCCCGGTAATCCGTATTTGCT (site CGGCTACCTAG)	0
CCGCTACCATGGACCGGTTTTCCCGGTAATCCGTATTTGCT (site CTGCTACCTAG)	0.00224
CCGCTAGCATGGACCGGTTTTCCCGGTAATCCGTATTTGTG (site CCGATAGCTCA)	0.0148
CCGCTAGCATGGACCGGTTTTCCCGGTAATCCGTATTTGTG (site CCGCTAGCTCA)	0.337
CCGCTAGCATGGACCGGTTTTCCCGGTAATCCGTATTTGTG (site CCGGTAGCTCA)	0.0182
CCGCTAGCATGGACCGGTTTTCCCGGTAATCCGTATTTGTG (site CCGTTAGCTCA)	0
CCGCTTACATGGACCGGTTTTCCCGGTAATCCGTATTTGCT (site CCGATTACTAG)	0
CCGCTTACATGGACCGGTTTTCCCGGTAATCCGTATTTGCT (site CCGCTTACTAG)	1.48
CCGCTTACATGGACCGGTTTTCCCGGTAATCCGTATTTGCT (site CCGGTTACTAG)	0
CCGCTTACATGGACCGGTTTTCCCGGTAATCCGTATTTGCT (site CCGTTTACTAG)	0
CCGCTTCCATGGACCGGTTTTCCCGGTAATCCGTATTTGTC (site CCGCTTCCTGA)	0
CCGCTTTCATGGACCGGTTTTCCCGGTAATCCGTATTTGAG (site CCGCTTTCTCT)	0.19
CCGGAAACATGGACCGGTTTTCCCGGTAATCCGTATTTGTT (site CCGGAAACTAA)	1.15
CCGGATCCATGGACCGGTTTTCCCGGTAATCCGTATTTGTT (site CCGGATCCTAA)	0.556
